pIC50: −log10 of the molar value.
Legend:
Staphylococcus aureus [1] = assay: Inhibition of planktonic growth of Staphylococcus aureus SH1000; assay type: organism-based
Staphylococcus aureus [2] = assay: Antibiofilm activity against Staphylococcus aureus SH1000 after 48 hrs by crystal violet staining based method; assay type: functional
Salmonella typhimurium [3] = assay: Antibiofilm activity against Salmonella typhimurium ATCC 14028 after 24 hrs by crystal violet staining based method; assay type: functional, Salmonella enterica subsp. enterica serovar Typhimurium
Salmonella typhimurium [4] = assay: Inhibition of planktonic growth of Salmonella typhimurium ATCC 14028; assay type: organism-based, Salmonella enterica subsp. enterica serovar Typhimurium; conditions: Salmonella enterica
A-375 = assay: Antiproliferative activity against human A375 cells after 48 hrs by MTT assay; assay type: functional, cell-based; conditions: A-375, 48 h
Pseudomonas aeruginosa [5] = assay: Antibiofilm activity against Pseudomonas aeruginosa PA14 after 24 hrs by crystal violet staining based method; assay type: functional
MIA PaCa-2 = assay: Antiproliferative activity against human MIAPaCa2 cells after 48 hrs by MTT assay; assay type: functional, cell-based; conditions: MIA PaCa-2, 48 h
Pseudomonas aeruginosa [6] = assay: Inhibition of planktonic growth of Pseudomonas aeruginosa PA14 cells; assay type: organism-based

Compound	pIC50 (Staphylococcus aureus [1])	MBIC50 (Staphylococcus aureus [2]) [µM]	MBIC50 (Salmonella typhimurium [3]) [µM]	pIC50 (Salmonella typhimurium [4])	pIC50 (A-375)	MBIC50 (Pseudomonas aeruginosa [5]) [µM]	pIC50 (MIA PaCa-2)	pIC50 (Pseudomonas aeruginosa [6])
Cc1ccc(NC(=O)Cn2c(N)nc(CC3CCCC3)c2-c2ccccc2Br)cc1	< 3.40	289.6	>400	< 3.40	4.32	>400	4.09	< 3.40
CCCCCc1nc(N)n(CC(=O)Nc2ccc(C)cc2)c1-c1ccccc1Br	4.48	29.8	31.5	3.70	5.37	42.4	5.25	4.12
Nc1nc(CC2CC2)c(-c2ccccc2Br)n1CC(=O)Nc1ccccc1	3.89	29.2	107.6	< 3.40	5.24	86.3	5.16	3.81
Cc1ccc(NC(=O)Cn2c(N)nc(Cc3ccccc3)c2-c2ccccc2Br)cc1	4.91	7.6	6	4.53	5.70	16.8	5.42	4.86
CC(C)(C)c1ccc(Cc2nc(N)n(CC(=O)Nc3ccccc3)c2-c2ccccc2Br)cc1	5.11	6.5	12.5	< 3.40	5.55	124.3	5.31	< 3.40
Cc1ccc(NC(=O)Cn2c(N)nc(CC3CCCCC3)c2-c2ccccc2Br)cc1	< 3.40	>400	>400	< 3.40	4.76	>400	4.31	< 3.40
CCCCCc1nc(N)n(CC(=O)Nc2ccccc2)c1-c1ccccc1Br	< 3.40	21.3	>400	< 3.40	4.58	>400	4.39	< 3.40
O=C(OC[C@H]1O[C@@H](OC(=O)c2cc(O)c(O)c(OC(=O)c3cc(O)c(O)c(O)c3)c2)[C@H](OC(=O)c2cc(O)c(O)c(OC(=O)c3cc(O)c(O)c(O)c3)c2)[C@@H](OC(=O)c2cc(O)c(O)c(OC(=O)c3cc(O)c(O)c(O)c3)c2)[C@@H]1OC(=O)c1cc(O)c(O)c(OC(=O)c2cc(O)c(O)c(O)c2)c1)c1cc(O)c(O)c(OC(=O)c2cc(O)c(O)c(O)c2)c1 [TANNIC ACID]	< 3.40	115.3	18.8	< 3.40	–	27.7	–	< 3.40
CC(C)(C)c1ccc(Cc2nc(N)n(CC(=O)NCc3ccccc3)c2-c2ccccc2Br)cc1	< 3.40	>400	>400	< 3.40	–	>400	–	< 3.40
CCCCCCCc1nc(N)n(CC(=O)Nc2ccccc2)c1-c1ccccc1Br	4.15	18.1	114.8	< 3.40	5.04	221.9	5.10	< 3.40
CCCCCCCc1nc(N)n(CC(=O)Nc2ccc(C)cc2)c1-c1ccccc1Br	4.64	14.4	37.7	< 3.40	5.28	291.1	5.15	3.72
Cc1ccc(NC(=O)Cn2c(N)nc(Cc3ccc(C(C)(C)C)cc3)c2-c2ccccc2Br)cc1	5.10	3.9	17.6	< 3.40	5.85	>400	5.47	< 3.40
Nc1nc(CC2CCCCC2)c(-c2ccccc2Br)n1CC(=O)Nc1ccccc1	< 3.40	>400	>400	< 3.40	4.39	>400	4.05	< 3.40
